Structures can show the parent of a compound that is named as a salt.
Columns and labels:
Type in all cases: biochemical
[1] = system: dopamine (DA) reuptake in synaptosomes; assay: DA reuptake inhibition in synaptosomes; settings: 3H-DA, read-out: DA-uptake IC50
Text: (§1) Compounds of the invention may be tested for their ability to inhibit reuptake of the monoamines dopamine, noradrenaline and serotonin in synaptosomes e.g. such as described in WO 97/30997 (NeuroSearch A/S) or WO 97/16451 (NeuroSearch A/S). The compounds of the invention may also be tested for their antinociceptive activity e.g. such as described below: Background: formalin injection into the rat hindpaw initiates […] spontaneous nociceptive behaviours consisting of either flinching, and licking and/or biting of the injected paw. The first phase occurs as a direct chemical stimulation of nociceptors, and is followed by a period of relative quiescence called interphase that can be attributed to activation of noxious inhibitory control pathways; primarily 5-HT and NA pathways originating from brainstem nuclei. The second phase occurs as a result of increased primary afferent afferent drive with subsequent sensitization of nociceptive spinal neurones (Coderre et al., 1993). Animals: adult male Sprague-Dawley rats (Harlan Scandinavia, Alleroed, Denmark). The experiments was performed according to the Ethical Guidelines of the International Association for the Study of Pain (Zimmermann, 1983) and the Danish Committee for Experiments on Animals. […] MED and ED50 values were calculated where possible. Data (mean+/−SEM) were analyzed using one way ANOVA followed by Bonferonni's t test. […]

[2] = system: serotonine (5-HT) reuptake in synaptosomes; assay: 5-HT reuptake inhibition in synaptosomes; settings: 3H-5-HT, read-out: 5-HT-uptake IC50
Text: as §1

[3] = system: noradrenaline (NA) reuptake in synaptosomes; assay: NA reuptake inhibition in synaptosomes; settings: 3H-NA, read-out: NA-uptake IC50
Text: as §1

Structure (SMILES): CCc1cc2ccc(O[C@@H]3C[C@H]4CC[C@@H](C3)N4)cc2oc1=O [Compound 1.1, exo-7-[(8-Aza-bicyclo[3.2.1]oct-3-yl)oxy]-3-ethyl-chromen-2-one hydrochloride]
- IC50 [1]: 0.5 µM
- IC50 [2]: 0.0078 µM
- IC50 [3]: 0.047 µM
